The supplement of paper PMC4862054
“And” between values parts separate entries of the source, which are not always exact repeats. Identical values can stand only once.

Columns and labels:
Conditions in all cases: incubation time: 72 h
[1] = test system: CAL-148; assay: normalised response (% of control), CellTox Green; higher = less cell death (100 = DMSO, 0 = benzethonium chloride kill control)
In short: (§1)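 Each value is the plate-normalised signal at one concentration of the series. Breast cancer cell lines (20 µl suspension) were incubated 72 h in 384-well plates with compound at 5 concentrations in 10-fold steps over a compound-specific 10,000-fold range. CellTox Green and then CellTiter-Glo were read, and each plate was scaled to 0.1 % DMSO (100) and a positive kill control (0).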

[2] = test system: Hs578T; assay: as above
In short: as §1

[3] = test system: BT-474; assay: as above
In short: as §1

[4] = test system: HCC1143; assay: as above
In short: as §1

[5] = test system: CAL-51; assay: as above
In short: as §1

[6] = test system: HCC1937; assay: as above
In short: as §1

[7] = test system: MDA-MB-436; assay: as above
In short: as §1

[8] = test system: DU-4475; assay: as above
In short: as §1

[9] = test system: MDA-MB-453; assay: as above
In short: as §1

[10] = test system: CAL-120; assay: as above
In short: as §1

[11] = test system: BT-549; assay: as above
In short: as §1

[12] = test system: MDA-MB-231; assay: as above
In short: as §1

[13] = test system: MFM-223; assay: as above
In short: as §1

[14] = test system: MCF-10A; assay: as above
In short: as §1

[15] = test system: CAL-85-1; assay: as above
In short: as §1

[16] = test system: HCC1599; assay: as above
In short: as §1

[17] = test system: MDA-MB-468; assay: as above
In short: as §1

[18] = test system: HDQ-P1; assay: as above
In short: as §1

[19] = test system: Hs578T; assay: normalised viability (% of control), CellTiter-Blue; higher = more viable cells (about 100 = DMSO control)
In short: (§2)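 After 72 h on compound-loaded 384-well plates, breast cancer cell lines received 2.5 µl CellTiter-Blue reagent for 2 h at 37 °C. Fluorescence at 560/590 nm was scaled per plate so that vehicle was 100 and a positive kill control was 0. The value stands for normalised viability at a single listed concentration of the series.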

[20] = test system: BT-474; assay: as above
In short: as §2

[21] = test system: MDA-MB-453; assay: as above
In short: as §2

[22] = test system: MDA-MB-468; assay: as above
In short: as §2

[23] = test system: MDA-MB-231; assay: as above
In short: as §2

[24] = test system: CAL-85-1; assay: as above
In short: as §2

Row | Compound | normalised response [1] | normalised response [2] | normalised response [3] | normalised response [4] | normalised response [5] | normalised response [6] | normalised response [7] | normalised response [8] | normalised response [9] | normalised response [10] | normalised response [11] | normalised response [12] | normalised response [13] | normalised response [14] | normalised response [15] | normalised response [16] | normalised response [17] | normalised response [18] | normalised viability ([19]; 1000 nM) | normalised viability ([19]; 10000 nM) | normalised viability ([20]; 10 nM) | normalised viability ([20]; 1000 nM) | normalised viability ([20]; 10000 nM) | normalised viability ([21]; 3 nM) | normalised viability ([21]; 30 nM) | normalised viability ([21]; 100 nM) | normalised viability ([22]; 10 nM) | normalised viability ([22]; 1000 nM) | normalised viability ([22]; 10000 nM) | normalised viability ([23]; 1000 nM) | normalised viability ([23]; 10000 nM) | normalised viability ([24]; 3 nM) | normalised viability ([24]; 30 nM) | normalised viability ([24]; 100 nM)
1 | CS(=O)(=O)OCCCCOS(C)(=O)=O [Busulfan] (100000 nM) | 81.5% | 123% | 100% | 94.9% | 106% | 105% | 95.6% | 97.4% | 97.6% | 101% | 110% | 99.8% | 84.1% | 95.5% | 77.6% | 108% | – | – | – | – | – | – | – | – | – | – | – | – | – | – | – | – | – | –
2 | COc1cccc2c1C(=O)c1c(O)c3c(c(O)c1C2=O)C[C@@](O)(C(C)=O)C[C@@H]3O[C@H]1C[C@H](N)[C@H](O)[C@H](C)O1 [Daunorubicin] (100 nM) | -17.1% | 90.7% | 99.5% | 75.9% | 73.5% | – | 98.2% | 100% | 110% | 105% | 124% | 104% | 99.6% | 106% | 102% | 102% | 96.9% | – | – | – | – | – | – | – | – | – | – | – | – | – | – | – | – | –
3 | CN1CCN(c2ccc3nc(-c4c(N)c5c(F)cccc5[nH]c4=O)[nH]c3c2)CC1 [Dovitinib] (10000 nM) | 92.4% | – | 99.9% | 111% | 118% | 97.9% | 108% | 101% | 103% | 101% | 121% | – | 99.1% | 99.3% | 86.8% | 104% | 126% | 108% | – | – | – | – | – | – | – | – | – | – | – | – | – | – | – | –
4 | O=c1[nH]c(=O)n([C@H]2C[C@H](O)[C@@H](CO)O2)cc1F [Floxuridine] (1000 nM) | – | 98.3% | 102% | 122% | 71% | 126% | 108% | 106% | 110% | 98.4% | 111% | 86% | 102% | 116% | 89.6% | 104% | 125% | 98% | – | – | – | – | – | – | – | – | – | – | – | – | – | – | – | –
5 | O=c1[nH]c(=O)n([C@H]2C[C@H](O)[C@@H](CO)O2)cc1F [Floxuridine] (10000 nM) | 106% | 93.2% | 104% | 103% | 53.1% | 114% | 99.9% | 103% | 103% | 93.8% | 113% | 108% | – | 113% | 26.5% | 106% | 119% | 66.2% | – | – | – | – | – | – | – | – | – | – | – | – | – | – | – | –
6 | O=c1[nH]cc(F)c(=O)[nH]1 [Fluorouracil] (10000 nM) | 92.9% | 118% | 105% | 103% | 120% | 104% | 75.7% | 99.2% | 100% | 105% | 95.8% | 105% | 103% | 75.7% | 75% | 95.2% | -57.8% | – | – | – | – | – | – | – | – | – | – | – | – | – | – | – | – | –
7 | C[C@@H]1C=C2C(=O)O[C@@H]3CC[C@H](C1)[C@]23O [Galiellalactone] (5000 nM) | 104% | 112% | 100% | 105% | 101% | 115% | 96.5% | 106% | 103% | 58.8% | 117% | 107% | 101% | 82.2% | 106% | 105% | – | 98.5% | – | – | – | – | – | – | – | – | – | – | – | – | – | – | – | –
8 | COC1=C2C[C@@H](C)C[C@H](OC)[C@H](O)[C@@H](C)/C=C(\C)[C@H](OC(N)=O)[C@@H](OC)/C=C\C=C(/C)C(=O)NC(=CC1=O)C2=O [Geldanamycin] (1000 nM) | – | 91.1% | 95% | 102% | 109% | 105% | 92.2% | 99.2% | 104% | 102% | 112% | 107% | 90.7% | 96.8% | 91% | 92.2% | – | 102% | – | – | – | – | – | – | – | – | – | – | – | – | – | – | – | –
9 | CS(=O)(=O)CCNCc1ccc(-c2ccc3ncnc(Nc4ccc(OCc5cccc(F)c5)c(Cl)c4)c3c2)o1 [Lapatinib] | – | – | – | – | – | – | – | – | – | – | – | – | – | – | – | – | – | – | 93.5% and 95.4% | 24.9% and 33.1% | 97.6% and 106% | 37.3% and 43.9% | 8.89% and 18.7% | 100% and 118% | 72.4% and 85.8% | 59.9% and 59% | 100% and 105% | 64.2% and 68.2% | 11.8% and 16.3% | 85.8% and 109% | 52.9% and 52.4% | 97.7% and 91.7% | 90.3% and 92.4% | 94.6% and 91.4%
10 | CS(=O)(=O)CCNCc1ccc(-c2ccc3ncnc(Nc4ccc(OCc5cccc(F)c5)c(Cl)c4)c3c2)o1 [Lapatinib] (1000 nM) | 64.5% | – | 76.4% | 99% | 106% | – | 98.7% | 100% | 82.5% | 99.2% | 93.4% | – | 104% | 26.9% | 59.3% | 107% | 84.8% | 96.8% | – | – | – | – | – | – | – | – | – | – | – | – | – | – | – | –
